Values quoted from earlier work in paper PMC12386934, “Characteristics and Potential of KSL, KSL-W, and Dadapin-1 Antimicrobial Peptides for Preventing Infections of Orthopedic Prosthetic Devices: Identifying the Most Robust Candidate” (International Journal of Molecular Sciences, 2025).
Where a SMILES comes first, the peptide text is derived from it.

Details: cited from earlier work
Description: In 2021, aiming at identifying AMPs for a possible application in the prevention or treatment of prosthetic orthopedic infections, our group conducted an extensive systematic review on known short-chain AMPs, primarily based on the Database of Antimicrobial Activity and Structure of Peptides (DBAASP). The choice of considering short-chain peptides was dictated by the potentially lower allergenic risk offered by small peptides. The query included all monomeric AMPs with a length spanning from 7 to 13 amino acids. The research results provided a list of 415 entries, which were then extend ...

CC(C)[C@H](NC(=O)[C@H](Cc1c[nH]c2ccccc12)NC(=O)[C@H](Cc1ccccc1)NC(=O)[C@@H](NC(=O)[C@@H](NC(=O)[C@H](CCCCN)NC(=O)[C@@H](N)CCCCN)C(C)C)C(C)C)C(=O)N[C@@H](CCCCN)C(=O)N[C@@H](Cc1ccccc1)C(=O)N[C@@H](CCCCN)C(=O)O [KSL-W] (H-KKVVFWVKFK-OH)
stability to enzymic activity such as trypsin-catalyzed cleavage: greater stability
